Results as given in patent US8871208B2, “11-β-hydroxysteroid dehydrogenase type 1 (11β-HSD1) inhibitors and uses thereof” (AbbVie Inc., priority 2009, dated 2014).

Tests used:
Assay type in all cases: in vivo
[1] = test system: plasma osteocalcin; assay: Study A: prednisolone-induced osteocalcin reduction in rats; details: prednisolone 10 mg/kg po, 4 hour time point
From the text: Prednisolone (active GC) administration to rats induces a variety of acute physiological effects including an increase in liver tyrosine amino transferase, increase in serum free fatty acids, increase in liver glycogen levels, hyperglycemia, decrease in osteocalcin, among others. Osteocalcin is of particular interest since a decrease in this hormone leads to decreased bone formation, increasing the potential for osteoporosis. Administration of an 11β-HSD-1 inhibitor would be expected to reduce local reactivation of prednisolone from prednisone in the bone or relevant tissue, and thereby reduce loss of osteocalin levels. […] Prednisone is reactivated, however, to prednisolone in the liver, bone and other tissues where 11β-HSD-1 is expressed. By blocking this reactivation through the use of an 11β-HSD-1 inhibitor, the exposure of active glucocorticoid in bone would be minimized. […] To validate this hypothesis, effects of the 11β-HSD-1 inhibitor (compound A) on prednisolone-induced osteocalcin reduction was evaluated in rats using two separate protocols as indicated in the Table 8 below.
In Study A, rats were pre-dosed with Compound A at 30 mg/kg 1 hour prior to administration with the active glucocorticoid, prednisolone, at 10 mg/kg, po. At 2 and 4 hours after dosing prednisolone, rats were sacrificed, and blood evaluated for levels of osteocalcin.

[2] = test system: P1NP (N-terminal propeptide of type I procollagen); assay: Mouse model of glucocorticoid-induced osteoporosis: plasma P1NP; details: mice, control diet
From the text: (§1) Purpose: The purpose of this experiment was to determine if inhibiting 11β-HSD-1 in mice results in protection from prednisolone-induced bone loss over a 28-day period, while maintaining the same anti-inflammatory efficacy against lipopolysaccharide(LPS)-induced TNFα.
(§2) Animals: Female Swiss Webster mice from Charles River Laboratories (CFW mice) were used in this study. Mice were 10 weeks old at the start of the study. Two identical prednisolone dose responses were run with a vehicle control (n=12), 5, 1.5, and 0.5 mg/kg dosed for 28 days (n=8 each), and 1.5 mg/kg dosed for 27 days (n=8, to determine if prednisolone needed to be on board to affect tumor necrosis factor-alpha(TNFα), procollagen type 1 N-terminal propeptide(P1NP), and Osteocalcin). […] The total number of animals used was 88.
(§3) Experimental Design: All animals were placed on the control diet (Research Diets Rodent Diet with 60 kcal % Fat: D12492i) upon arrival. […] Also on this day, animals were weighed for baselines and ear-tagged for identification. On day 1 of the study, all animals were injected intraperitoneally (i.p.) with 10 mg/kg of calcein (Sigma #C0875) in 2% sodium bicarbonate (Sigma #S6014, dissolved in deionized water). […] On day 27, 4 animals from each vehicle control group were challenged with 5 mg/kg of 11-dehydrocorticosterone (11-DHC [Steraloids #Q3690-000]) p.o., and plasma was collected 30 minutes later for corticosterone analysis by mass spec. […] Thirty minutes later, all groups were challenged with 0.1 mg/kg of LPS (Sigma #L4130) to induce TNFα. […] Right leg bones, left leg bones, and the spinal columns of all mice were collected and stored as follows:
N-terminal propeptide of type I procollagen (PINP) was measured using the Rat/Mouse PINP EIA kit from Immunodiagnostic Systems. The protocol was followed as outlined in the kit, except for that sample dilutions were made in a separate plate instead of directly in the ELISA plate. Samples were read using a Molecular Devices Spectra Max 190 plate reader and Soft Max Pro 5.2 software.

[3] = test system: Osteocalcin; assay: Mouse model of glucocorticoid-induced osteoporosis: plasma osteocalcin; details: mice, control diet
From the text: as §1, §2, §3
Osteocalcin was measured using the Millipore Milliplex Mouse Osteocalcin Single-Plex Kit. The protocol was followed exactly as outlined in the kit. Samples were read on a BioRad Bio-Plex System, model # Luminex 100 and Bio-Plex Manager 4.1.1 software.

[4] = test system: TNFα; assay: Mouse model of glucocorticoid-induced osteoporosis: LPS-induced TNFα; details: mice, LPS 0.1 mg/kg challenge, control diet
From the text: as §1, §2, §3
TNFα was measured using the Mouse […] Quantikine ELISA kit from R&D Systems. The protocol was followed as outlined in the kit. Samples were read using a Molecular Devices Spectra Max 250 plate reader and Soft Max Pro 4.8 software.

[5] = test system: Trabecular bone at Femoral Metaphysis; assay: Mouse model of glucocorticoid-induced osteoporosis: femur histomorphometry; details: mice, control diet
From the text: as §1, §2, §3
Left leg bones were removed, cleaned, and cut identically to the right leg bones. However, left legs were separated at the knee joint by carefully teasing apart with a scalpel.
Femurs were fixed in 4% paraformaldehyde for 48 hours, and transferred to 30% sucrose for 24 hours before embedding in a CMC (carboxymethylcellulose) block. Blocks were frozen in liquid nitrogen-cooled hexanes (−60° C. or colder) for 3-5 minutes, and stored at −80° C. Femurs were then sectioned on a cryomicrotome.
Bone was measured from 8-10 fields per femur, with each field being 400×500 microns in size. All dynamic measurement calculations were made from scoring the second and third fluorochrome labels, which were administered 11 days apart. OsteoMeasure software was used to obtain all values.
Bone formation rate/bone volume (BFR/BV) refers to the volume of new bone formed per unit of time, and is measured as a percent per day. BFR is the most significant measure of bone formation.
Mineral apposition rate (MAR) refers to the distance between two fluorochrome labels divided by the number of days between label administration, and is indicative of osteoblastic activity.
Double labeled surface/bone surface (dLS/BS) refers to the percentage of trabecular bone surface which is double-labeled, and is another readout indicative of bone formation.

[6] = test system: plasma osteocalcin; assay: Study B: prednisone-induced osteocalcin reduction in rats; details: vehicle pre-treatment, prednisone 10 mg/kg po, 4 hours later
From the text: Prednisolone (active GC) administration to rats induces a variety of acute physiological effects including an increase in liver tyrosine amino transferase, increase in serum free fatty acids, increase in liver glycogen levels, hyperglycemia, decrease in osteocalcin, among others. Osteocalcin is of particular interest since a decrease in this hormone leads to decreased bone formation, increasing the potential for osteoporosis. Administration of an 11β-HSD-1 inhibitor would be expected to reduce local reactivation of prednisolone from prednisone in the bone or relevant tissue, and thereby reduce loss of osteocalin levels. […] Prednisone is reactivated, however, to prednisolone in the liver, bone and other tissues where 11β-HSD-1 is expressed. By blocking this reactivation through the use of an 11β-HSD-1 inhibitor, the exposure of active glucocorticoid in bone would be minimized. This example would pertain to normal older individuals as well where cortisol levels increase with age, and likely contribute to age-dependent osteoporosis. This would be an acute study design. To validate this hypothesis, effects of the 11β-HSD-1 inhibitor (compound A) on prednisolone-induced osteocalcin reduction was evaluated in rats using two separate protocols as indicated in the Table 8 below.

Compound: C[C@]12C=CC(=O)C=C1CC[C@@H]1[C@@H]2[C@@H](O)C[C@@]2(C)[C@H]1CC[C@]2(O)C(=O)CO [Prednisolone, prednisolone, reference compound]
- plasma osteocalcin after prednisolone [1]: significant reductions in plasma osteocalcin
- % Inhibition of P1NP, (−) Inhibitor ([2]; prednisolone 0.5 mg/kg p.o. daily 28 days): 33%
- % Inhibition of P1NP, (−) Inhibitor ([2]; prednisolone 5 mg/kg p.o. daily 28 days): 51%
- % Inhibition of Osteocalcin, (−) Inhibitor ([3]; prednisolone 0.5 mg/kg): 10%
- % Inhibition of Osteocalcin, (−) Inhibitor ([3]; prednisolone 5 mg/kg): 45%
- % Inhibition of TNFα, (−) Inhibitor ([4]; prednisolone 0.5 mg/kg): 80%
- % Inhibition of TNFα, (−) Inhibitor ([4]; prednisolone 5 mg/kg): 98%
- % Inhibition of TNFα, (−) Inhibitor ([4]; prednisolone […]): 95%
- % Increase in dLS/BS, (−) Inhibitor ([5]; prednisolone 0.5 mg/kg): No Increase
- % Inhibition of BFR/BV, (−) Inhibitor ([5]; prednisolone 0.5 mg/kg): No Inhibition
- % Inhibition of MAR, (−) Inhibitor ([5]; prednisolone 0.5 mg/kg): 33%
- % Increase in dLS/BS, (−) Inhibitor ([5]; prednisolone 5 mg/kg): No Increase
- % Inhibition of BFR/BV, (−) Inhibitor ([5]; prednisolone 5 mg/kg): 27%
- % Inhibition of MAR, (−) Inhibitor ([5]; prednisolone 5 mg/kg): 52%

Compound: C[C@]12C=CC(=O)C=C1CC[C@@H]1[C@@H]2C(=O)C[C@@]2(C)[C@H]1CC[C@]2(O)C(=O)CO [prednisone]
- plasma osteocalcin after prednisone challenge [6]: significant reduction in plasma osteocalcin
